System: intimal hyperplasia in Brown Norway aortic segments transplanted into Lewis rats
Experiment: Aortic transplant model, histomorphometric analysis of intimal hyperplasia
Assay type: in vivo, rat
Conditions: CO 250 ppm after transplantation and for 56 days; vs air-exposed recipients; day 56; p<0.001
Source text: Animals. Male (250-350 g) Brown Norway rats (RT1^n) were used as aortic graft donors and male (250-350 g) Lewis rats (RT11) as recipients. Dawley (400-450 g) rats were used in the balloon injury model. Adult male C57BL/6, C57/S129, p21^−/− and p53^−/− null mice were purchased from Jackson Laboratory (Bar Harbor, Me.). mkk3^(−/−) null mice were generated as described Lu et al. (EMBO. 18:1845-1857 (1999)). The inos^−/− and enos^−/− mice were bred at the University of Pittsburgh. Aortic transplant model. Aortic transplantation was performed as described in Shimizu et al. (Nat. Med. 7:738-741 (2001)). Briefly, 3 to 4 cm of descending aorta was harvested from the donor and implanted between the renal arteries and the aortic bifurcation of the recipient. Both edges of the native abdominal aorta were ligated. Balloon injury model. Balloon angioplasty was carried out as described in Murakami et al. (Atherosclerosis 157:361-368 (2001)). […] [^3H]thymidine incorporation was measured by scintillation spectroscopy and presented as mean counts/min/well. […] Areas from eight to ten captured images were calculated using digital imaging software as number of pixels corresponding to those areas. Twenty-four to forty-eight sections from each group were statistically analyzed with SPSS software version 10. […]

`[C-]#[O+]` [CO, carbon monoxide] was tested. Which “Intimal hyperplasia, reduction versus control” value did it give?
Its value is 61.4±12.9%.
